Patent publication US20030073731A1, “Compositions and methods of the use thereof achiral analogues of CC-1065 and the duocarmycins” (priority 2000, published 2003)
Where two headings read alike, the source gives them in different places.

Tests used:
MCF7/ADR-RES = test: cells; format: cell-based, human
DU-145 = format: cell-based, human
[1] = test system: PC3 (human prostate cancer cells); test: cells; format: cell-based
plasmid pBR322 DNA = test: Taq polymerase stop assay; format: biochemical
OVCAR-3 [2] = test system: OVCAR-3
SR = test: cells; format: cell-based, human
IGROV1 = test: cells; format: cell-based, human
MALME-3M = format: cell-based, human
OVCAR-3 [3] = test: cells; details: Homo sapiens
COLO 205 = test: NCI in-vitro cytotoxicity screen, Colon Cancer panel; format: cell-based; details: Homo sapiens
T-470 = test: NCI in-vitro cytotoxicity screen, Breast Cancer panel; format: cell-based, human; details: T-470
[4] = as above; format: cell-based, human; details: Homo sapiens, read-out: LC50
NCI-H23 = test: cells; details: Homo sapiens
MDA-N = test: cells; details: Homo sapiens
[5] = test system: MCF-7 (human breast cancer cells); test: cells; format: cell-based
U251 = test: cells; details: Homo sapiens
SF-295 = test: cells; details: Homo sapiens
[6] = test system: K562 human chronic myeloid leukemia cells; test: cells; format: cell-based
Experimental: The cytotoxicity was determined using a MTT tetrazolium dye assay (42). […] The incubation was terminated by centrifugation (5 minutes, 300 g) and the cells were washed once with drug-free medium. Following the appropriate drug treatment, the cells were transferred to 96-well microtitre plates, 10^4 cells per well, 8 wells per sample. Plates were then kept in the dark at 37° C. in a humidified atmosphere containing 5% CO2. […] Following incubation of the plates for 4 days (to allow control cells to increase in number by 10 fold) 20 μL of a 5 mg/mL solution of MTT in phosphate buffered saline was added to each well and the plates further incubated for 5 hours. The plates were then centrifuged for 5 minutes at 300 g and the bulk of the medium pipetted from the cell pellet leaving 10-20 μL per well. 200 μL DMSO was added to each well and the samples agitated to ensure complete mixing. The optical density was the read at a wavelength of 550 nm on a Titertek Multiscan ELISA plate reader, and the dose-response curve was constructed.

SF-539 = test: cells; details: Homo sapiens
M14 = test: cells; details: Homo sapiens
LOX IMVI = test: cells; details: Homo sapiens

## 4-(2-Chloroethyl)-3-[5-(5-benzofuran-2-carboxamido)indole-2-carboxamido]phenol [Compound 1]
MCF7/ADR-RES; MCF7/ADR-RES
  GI50: 1650 nM
  TGI: 3.79E-06 Molar
MCF7/ADR-RES; MCF7/ADR-RES, Log10 Concentration (Molar) −4.0
  Percent Growth: −55%
MCF7/ADR-RES; MCF7/ADR-RES, Log10 Concentration (Molar) −7.0
  Percent Growth: 97%
SF-268
  GI50: 13400 nM
  TGI: 2.78e-05 Molar
DU-145
  GI50: 1120 nM
  TGI: 6.16E-06 Molar
[1]; PC3, Continuous exposure
  IC50: 3000 nM
EKVX
  GI50: 1780 nM
  TGI: 4.41E-06 Molar
Plasmid pBR322 DNA
  sequence selectivity compared with compound 27: stronger sequence selectivity than 27
SN12C
  GI50: 3100 nM
  TGI: 9.41E-06 Molar
RPMI-8226
  GI50: 1860 nM
  TGI: 5.59E-06 Molar
KM12
  GI50: 18800 nM
  TGI: 3.50E-05 Molar
MDA-MB-435
  GI50: 1890 nM
  TGI: 3.75E-06 Molar
SW-620
  GI50: 2010 nM
  TGI: 8.19E-06 Molar
OVCAR-3 [2]
  GI50: 2130 nM
  TGI: 4.69E-06 Molar
Human H522 lung cancer
  IP+SC score: 18
  cell kill: significant cells kill was observed
Human H522 lung cancer; intraperitoneal fibers
  IP score: 8
Human H522 lung cancer; subcutaneous fibers
  SC score: 10
SR
  GI50: 852 nM
  TGI: 8.12E-06 Molar
MDA-MB-231/ATCC
  GI50: 2430 nM
  TGI: 7.10E-06 Molar
MDA-MB-231/ATCC; Log10 Concentration (Molar) −4.0
  Percent Growth: −65%
MDA-MB-231/ATCC; Log10 Concentration (Molar) −6.0
  Percent Growth: 92%
MDA-MB-231/ATCC; Log10 Concentration (Molar) −7.0
  Percent Growth: 97%
MDA-MB-231/ATCC; Log10 Concentration (Molar) −8.0
  Percent Growth: 94%
PC-3
  GI50: 969 nM
  TGI: 3.99E-06 Molar
NCI-H522
  GI50: 933 nM
  TGI: 3.00E-06 Molar
IGROV1
  GI50: 1500 nM
  TGI: 3.41E-06 Molar
MALME-3M
  GI50: 1840 nM
  TGI: 3.56E-06 Molar
HOP-92
  GI50: 2620 nM

## COC(=O)c1[nH]c2c(O)cc(NC(=O)c3cc4cc(OC)c(OC)c(OC)c4[nH]3)c(CCCl)c2c1C(=O)OC [Compound 22, Dimethyl 4-(2-chloroethyl)-7-hydroxy-5-(5,6,7-trimethoxyindole-2-carboxamido)indole-2,3-dicarboxylate]
MCF7/ADR-RES; Homo sapiens, NCI/ADR-RES
  GI50: 137 nM
OVCAR-3 [3]; OVCAR-3
  GI50: 139 nM
OVCAR-3 [3]; OVCAR-3, read-out: LC50
  CC50: 23000 nM
COLO 205; COLO 205
  GI50: 233 nM
COLO 205; COLO 205, read-out: LC50
  CC50: > 50000 nM
T-470; Homo sapiens
  GI50: 171 nM
T-470; Log10 Concentration −4.3
  Percent Growth: 14%
[4]
  CC50: > 50000 nM
NCI-H23; NCI-H23
  GI50: 67.5 nM
NCI-H23; NCI-H23, read-out: LC50
  CC50: > 50000 nM
[1]; Homo sapiens, PC3, 1 hour exposure
  IC50: 350 nM
[1]; Homo sapiens, PC3, Continuous exposure
  IC50: 50 nM
MDA-N
  GI50: 150 nM
MDA-N; read-out: LC50
  CC50: > 50000 nM
[5]; MCF7, MCF-7, 1 hour exposure
  IC50: 970 nM
[5]; MCF7, MCF-7, Continuous exposure
  IC50: 130 nM
U251; U-251
  GI50: 120 nM
U251; U-251, read-out: LC50
  CC50: > 50000 nM
SF-295; SF-295
  GI50: 126 nM
SF-295; SF-295, read-out: LC50
  CC50: > 50000 nM
SR; Homo sapiens, SR, SB
  GI50: 5.6 nM
[6]; 1 hour exposure
  IC50: 310 ± 220 nM
[6]; 72 h, continuous exposure (3 days)
  IC50: 250 ± 96 nM
IGROV1; Homo sapiens, IGROV-1, IGROV1
  GI50: 62.1 nM
SF-539; SF-539
  GI50: 80.4 nM
SF-539; SF-539, read-out: LC50
  CC50: 608 nM
M14; M14
  GI50: 76.4 nM
M14; M14, read-out: LC50
  CC50: 368 nM
LOX IMVI
  GI50: 81.7 nM
LOX IMVI; read-out: LC50
  CC50: 25600 nM
HOP-92; HOP-92
  TGI: 2.57E−07 Molar
